The results in this text go back to patent publication US20210115106A1, “MODIFIED T CELL RECEPTORS” (JANUX THERAPEUTICS, INC., priority 2017, published 2021).

Experiment [1] has as its system TCR-1. The experiment in a line: Primary phagemid binding ELISA, TCR-1 wells. The following applies: ELISA signal; phagemid supernatant on Neutravidin captured biotin-conjugated TCR-1.
Excerpt: (§1) The next day the deep well plates were centrifuged to separate the soluble phagemid from the E. coli cells. […] After binding at 4 degrees the plates were washed, and specifically bound phage were detected by anti-m13 HRP conjugated antibodies using standard TMB-based chromogenic ELISA procedures. Daughter plates or individual wells were subjected to standard DNA sequencing for clonal peptide sequence identification.
Experiment [2] addresses T1, Neutravidin (Gallus gallus, UniProt P02701). The experiment in a line: Primary phagemid binding ELISA, Neutravidin control wells (TCR-1 panning). The note with it: ELISA signal; Neutravidin alone.
Excerpt: as §1
For experiment [3], the target named is TCR-1 binding to MAGE-A3 pMHC. Nature of the experiment: Peptide inhibition of TCR-1 kinetic binding to MAGE-A3 pMHC (BLI). The note with it: 50 nM TCR-1; result in words. The procedure:
Zero concentration of inhibitory peptide (100% binding) or zero concentration of TCR (0% binding) was used as a control. Biotinylated pMHC was captured on streptavidin biosensors. Sensors were quenched using excess biocytin and then baselined in buffer. Inhibitory peptide and TCR mixtures were associated onto the pMHC loaded biosensor. Association signal was monitored in real-time. Biosensors were then transferred to buffer and the dissociation signal was measured in real-time.
Zero concentration of inhibitory peptide (100% binding) or zero concentration of TCR (0% binding) was used as a control. Biotinylated pMHC was captured on streptavidin biosensors. Sensors were quenched using excess biocytin and then baselined in buffer. […] Association signal was monitored in real-time. Biosensors were then transferred to buffer and the dissociation signal was measured in real-time. Data was baseline corrected. The maximal association signal was normalized from 100% (0 uM inhibitory peptide control) to 0% (0 uM TCR control) and plotted versus log-scale inhibitory peptide concentration. […]
Inhibitory peptide titrated in a 2-fold dilution series starting from 100 uM was first incubated with a constant concentration of 50 nM TCR. […] Association signal was monitored in real-time. Biosensors were then transferred to buffer and the dissociation signal was measured in real-time. […]

Experiment [4] relates to TCR-1, TCR-8, TCR-9, TCR-10. Nature of the experiment: BLI binding specificity of Peptide-5 against TCR-1 and closely related TCRs. The note with it: TCRs from 50 nM or at 100 uM on saturating Peptide-5. The procedure:
The other TCRS chosen are closely related to the target TCR-1. BLI based kinetic binding of TCR-land closely related TCRS, TCR-8, TCR-9, and TCR-10 to inhibitory peptides was measured using a ForteBio Octet RED96 instrument. Biotinylated peptides were first captured on streptavidin biosensors. Sensors were quenched using excess biocytin and then baselined in buffer. TCRs were titrated in a 2-fold dilution series starting from 50 nM and were associated onto the inhibitory peptide loaded biosensor. Association signal was monitored in real-time. Biosensors were then transferred to buffer and the dissociation of TCR was measured in real-time. Response data was baseline corrected and fit to a 1:1 binding model used to calculate association and dissociation rates.
BLI based kinetic binding of TCR-land closely related TCRS, TCR-8, TCR-9, and TCR-10 to inhibitory peptides was measured using a ForteBio Octet RED96 instrument. Biotinylated peptides were first captured on streptavidin biosensors until signal saturation. Sensors were quenched using excess biocytin and then baselined in buffer. TCRs were associated 100 uM onto the inhibitory peptide loaded biosensor. Association signal was monitored in real-time. Biosensors were then transferred to buffer and the dissociation of TCR was measured in real-time. […]

Experiment [5] concerns TCR-1. Nature of the experiment: Secondary pMHC phagemid competition ELISA on TCR-1. It is filed as binding. The following applies: for Secondary pMHC phagemid competition ELISA binding with 200 nM pMHC competitor / Secondary pMHC phagemid competition ELISA IC-3 binding no pMHC competitor: ELISA signal; for Secondary pMHC phagemid competition ELISA binding with 200 nM pMHC competitor: 200 nM Human MAGE-A3 pMHC competitor; for % binding with pMHC competition: TCR-1, 200 nM pMHC competitor relative to no competitor.
Chain of TCR-1 (as listed by the source): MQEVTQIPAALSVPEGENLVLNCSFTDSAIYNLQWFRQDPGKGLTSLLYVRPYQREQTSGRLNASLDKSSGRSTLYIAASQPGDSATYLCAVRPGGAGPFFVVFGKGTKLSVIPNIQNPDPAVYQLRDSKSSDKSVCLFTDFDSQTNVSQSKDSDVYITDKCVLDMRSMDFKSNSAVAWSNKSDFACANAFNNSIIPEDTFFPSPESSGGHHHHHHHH
Chain of TCR-1 (as listed by the source): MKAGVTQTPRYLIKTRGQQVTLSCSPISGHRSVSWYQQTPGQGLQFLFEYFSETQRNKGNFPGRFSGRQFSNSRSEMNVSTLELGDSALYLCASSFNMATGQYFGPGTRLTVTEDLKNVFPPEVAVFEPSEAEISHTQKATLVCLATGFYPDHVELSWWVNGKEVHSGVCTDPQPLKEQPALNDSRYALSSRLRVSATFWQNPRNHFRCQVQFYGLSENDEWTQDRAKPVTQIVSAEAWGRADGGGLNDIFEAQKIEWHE
Description: Human MAGE-A3 pMHC was added to wells to block the active binding site. After a brief incubation period phagemid supernatants were added to both sets of wells. Following further incubation at 4 degrees the plates were washed and specifically bound phage were detected by anti-m13 HRP conjugated antibodies using standard TMB-based chromogenic ELISA procedures. Phagemid clones binding within the antigenic binding pocket would be blocked and be identified by a decreased ELISA signal, compared to a well lacking previous pMHC blockade.

Experiment [6] relates to TCR-8. Nature of the experiment: Primary phagemid binding ELISA, TCR-8 wells. The note with it: ELISA signal; phagemid supernatant on Neutravidin captured biotin-conjugated TCR-8.
Chain of TCR-8 (as listed by the source): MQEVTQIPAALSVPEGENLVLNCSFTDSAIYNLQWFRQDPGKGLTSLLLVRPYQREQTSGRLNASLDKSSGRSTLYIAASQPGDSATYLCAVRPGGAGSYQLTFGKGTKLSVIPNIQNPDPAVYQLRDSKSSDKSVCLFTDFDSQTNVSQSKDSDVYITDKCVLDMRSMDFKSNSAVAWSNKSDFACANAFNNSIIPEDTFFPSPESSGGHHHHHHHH
Chain of TCR-8 (as listed by the source): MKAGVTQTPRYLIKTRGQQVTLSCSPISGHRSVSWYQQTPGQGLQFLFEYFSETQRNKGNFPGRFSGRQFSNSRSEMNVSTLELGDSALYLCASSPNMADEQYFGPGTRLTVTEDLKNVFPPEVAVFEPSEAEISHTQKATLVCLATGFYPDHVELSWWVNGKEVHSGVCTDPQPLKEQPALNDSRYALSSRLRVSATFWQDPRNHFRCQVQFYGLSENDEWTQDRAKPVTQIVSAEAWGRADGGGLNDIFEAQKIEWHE
Experiment [7] addresses T1, Neutravidin. Nature of the experiment: Primary phagemid binding ELISA, Neutravidin control wells (TCR-8 panning). The note with it: ELISA signal; Neutravidin alone. The procedure:
The next day the deep well plates were centrifuged to separate the soluble phagemid from the E. coli cells. The phagemid containing supernatants were then combined with PBS-Tween 20 (0.05%)+BSA (1%) blocking buffer and incubated in ELISA wells containing Neutravidin captured biotin-conjugated TCR-8 (Table 1) or Neutravidin alone. After binding at 4 degrees the plates were washed and specifically bound phage were detected by anti-m13 HRP conjugated antibodies using standard TMB-based chromogenic ELISA procedures. Daughter plates or individual wells were subjected to standard DNA sequencing for clonal peptide sequence identification.

Experiment [8] has as its target TCR-1. Nature of the experiment: ELISA-based binding of TCR-1 to synthetic peptides. The note with it: result in words; numbers are in Table 3, not printed here. The procedure:
ELISA-based binding: High binding plates were first coated with neutravidin. Neutravidin coated plates were blocked using bovine serum albumin in buffer and washed. Biotinylated peptide or pMHC at a single concentration of 100 nM was captured on neutravidin coated plates, quenched using excess biocytin, and washed. […] TCR was then titrated onto the peptide or pMHC captured plates for 1 hour and washed. […] Plates were then developed using tetramethylbenzidine (TMB) for 5-10 min and stopped using acid.
High binding plates were first coated with neutravidin. Neutravidin coated plates were blocked using bovine serum albumin in buffer and washed. Biotinylated peptide at a single concentration of 100 nM was captured on neutravidin coated plates, quenched using excess biocytin, and washed. […] TCR was then titrated onto the peptide captured plates for 1 hour and washed. […] Plates were then developed using tetramethylbenzidine (TMB) for 5-10 min and stopped using acid. Absorbance at 450 nm was measured for each plate and plotted versus log-scale TCR concentration. […]
High binding plates were first coated with neutravidin. Neutravidin coated plates were blocked using bovine serum albumin in buffer and washed. […] Absorbance at 450 nm was measured for each plate and plotted versus log-scale TCR concentration.

The target of experiment [9] is TCR-1 binding to MAGE-A3 pMHC. The experiment in a line: Peptide inhibition of TCR-1 binding to MAGE-A3 pMHC in competitive binding ELISA. The note with it: 1 nM TCR-1, result in words. The procedure: Peptide inhibition in competitive binding ELISAs: High binding plates were first coated with neutravidin. Neutravidin coated plates were blocked using bovine serum albumin in buffer and washed. Biotinylated pMHC at a single concentration of 100 nM was captured on neutravidin coated plates, quenched using excess biocytin, and washed. […] Inhibitory peptide and TCR mixtures were then added to the pMHC captured plates for 30 min and washed. […] Plates were then developed using tetramethylbenzidine (TMB) for 5-10 min and stopped using acid.
High binding plates were first coated with neutravidin. Neutravidin coated plates were blocked using bovine serum albumin in buffer and washed. Biotinylated pMHC at a single concentration of 100 nM was captured on neutravidin coated plates, quenched using excess biocytin, and washed. […] Inhibitory peptide and TCR mixtures were then added to the pMHC captured plates for 30 min and washed. […] Plates were then developed using tetramethylbenzidine (TMB) for 5-10 min and stopped using acid. Absorbance at 450 nm was measured for each plate and plotted versus log-scale inhibitory peptide concentration.
High binding plates were first coated with neutravidin. Neutravidin coated plates were blocked using bovine serum albumin in buffer and washed. […] Absorbance at 450 nm was measured for each plate and plotted versus log-scale inhibitory peptide concentration.

Experiment [10] relates to TCR-8. Nature of the experiment: Secondary pMHC phagemid competition ELISA on TCR-8. The format is binding.
Description: TCR-8 immobilized and blocked 96-well ELISA plates similar to above were prepared. Tetrameric human MAGE-A3 pMHC was first added to wells to block the active binding site. After a brief incubation period (30-60 minutes) phagemid supernatants were added to both sets of wells. Following further incubation at 4 degrees the plates were washed and specifically bound phage were detected by anti-m13 HRP conjugated antibodies using standard TMB-based chromogenic ELISA procedures.
The target in experiment [11] is T1, Neutravidin. The experiment in a line: primary phagemid binding ELISA, Neutravidin alone.

Ends that are not written are not given here.

T1 sequence (P02701 25-152): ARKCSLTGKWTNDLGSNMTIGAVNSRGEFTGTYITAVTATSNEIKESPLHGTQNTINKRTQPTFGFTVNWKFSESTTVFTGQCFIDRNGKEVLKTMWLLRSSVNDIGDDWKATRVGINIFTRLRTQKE

In the case of GGLADYCEHPMCYWYS [J250_G02], in experiment [1], the “Primary Phagemid binding ELISA TCR-1 wells” value is reported as 3.122. The “Primary Phagemid binding ELISA Neutravidin control wells” value in experiment [2] is 0.152.

As for “GGVSCKDVYDEAFCWT [Peptide-5, synthesized with a biotinylated linker and C-terminal amidation]”, the “IC50, inhibition of TCR-1 binding to MAGE-A3 pMHC” value in [3] is given as “lowest”. In addition, the “binding specificity for TCR-1 against closely related TCRs” value in experiment [4] is “selective for TCR-1”.

For the molecule GGDVRCFMRMMECVLL [J289_D10], the “Primary Phagemid binding ELISA Neutravidin control wells” value in experiment [2] is given as 0.120. In [5], the “Secondary pMHC phagemid competition ELISA binding with 200 nM pMHC competitor” value is on record as 0.132, the “Secondary pMHC phagemid competition ELISA IC-3 binding no pMHC competitor” value came out at 1.881 and the “% binding with pMHC competition” value came out at 7%.

Take “GGVICENWQGDRVCWF [J308_A03] (phagemid-displayed)”: the “Primary phagemid binding ELISA TCR-8 wells” value in experiment [6] came out at 3.157. In addition, the “Primary phagemid binding ELISA Netravidin Control wells” value in experiment [7] is on record as 0.132.

With GGLADYCEHPMCYWYS [J272_B10], the “Primary Phagemid binding ELISA Neutravidin control wells” value in experiment [2] was found to be 0.068. Also, in [5], the “Secondary pMHC phagemid competition ELISA binding with 200 nM pMHC competitor” value was determined as 0.075, the “Secondary pMHC phagemid competition ELISA IC-3 binding no pMHC competitor” value was determined as 1.683 and the “% binding with pMHC competition” value worked out at 4%.

For “Peptide-24: Peptide-5 alanine scan peptide, substitution of lysine at the 6th amino acid position (GGVSCADVYDEAFCWT-NH2; not fully specified; cysteine pairing not given here; also: biotinylated linker, place not given here)”, in [8], the “binding EC50 (TCR-1 binding to peptide by ELISA)” value is reported as “mild improvements”. The “competitive binding IC50” value in [9] is “mild improvement”.

Take “GGVICENWQGDRVCWF [J308_A09] (phagemid-displayed)”: the “Primary phagemid binding ELISA TCR-8 wells” value in experiment [6] stood at 3.065. Besides, in experiment [7], the “Primary phagemid binding ELISA Netravidin Control wells” value is 0.236. Further, the “Secondary pMHC phagemid competition ELISA binding with 100 nM pMHC tetramer competitor” value in experiment [10] (ELISA signal, 100 nM tetrameric human MAGE-A3 pMHC) is 0.570. For the same molecule, the “Secondary pMHC phagemid competition ELISA TCR-8 binding no pMHC competitor” value in [10] (ELISA signal, no pMHC competitor) is 1.877. In addition, the “% binding with pMHC competition” value in experiment [10] (TCR-8, 100 nM pMHC tetramer competitor relative to no competitor) worked out at 30%.

For GGDVRCFMRMMECVLL [J289_D10], in experiment [11], the ELISA signal (Neutravidin control wells) came out at 0.12.
